How the values were obtained:
[1] = test system: 32P-BS2 Probe; test: EMSA with 32P-BS2 probe on transfection lysates of NIH-3T3 fibroblasts; type: binding; conditions: EMSA, 32P-BS2 probe, lysates of transfected NIH-3T3 fibroblasts
Experimental: (§1) Double-stranded oligonucleotides containing potential DMP1 binding sites (BS1 and BS2) and mutated versions (M1-M4) (FIG. 5B) are end-labeled with ^32P using the Klenow fragment of DNA polymerase and α-^32P-dATP (6000 Ci/mmol; Dupont NEN) (8). Nuclear extracts from mouse NIH-3T3 or CTLL cells are prepared with buffer containing 0.4 M NaCl (2). Mammalian cell extracts (15 μg protein) or Sf9 lysates (corresponding to 5×10^2 infected cells) containing ˜4 ng recombinant DMP1 are mixed with 3 ng of ^32P-labeled probe (1×10^5 cpm) in 15 ul Binding buffer containing 2.5 μg of poly(dI-dC) and 2.5 μg BSA and incubated at 4° C. for 30 minutes. For competition experiments, the indicated amounts of unlabeled oligonucleotides are added to the reactions before addition of the labeled probe. In some experiments, a bacterially produced GST-Ets2 fusion protein containing the complete Ets2 DNA-binding domain (10) is used in place of Sf9 extracts containing recombinant DMP1. Protein-DNA complexes are separated on nondenaturing 4% polyacrylamide gels as described (8). Where indicated, antiserum to DMP1 together with 2.5 μg salmon testis DNA (Sigma; used to reduce nonspecific DNA binding activity caused by serum addition) is preincubated with extracts for 30 minutes at 4° C. prior to initiation of binding reactions. Immune complexes are either removed by adsorption to protein A-Sepharose beads (immunodepletion experiments) or are allowed to remain (“supershift” experiments).
A series of deletion mutants and a point mutant of DMP1, K319E, (in which the lysine at position 319 of SEQ ID NO:1 is replaced by a glutamic acid) were prepared and used to determine the DNA-binding domain of DMP1 by electrophoretic mobility shift assay (EMSA) using a ^32P labeled BS2 probe. The DNA-binding domain of DMP1 was mapped to a central region containing the three MYB repeats plus adjacent flanking sequences: a BstEII to NcoI fragment encoding amino acids 87-458 of SEQ ID NO:1 (Table 1). This region alone was necessary and sufficient for DNA binding.

[2] = test system: NIH-3T3 fibroblasts; test: BrdU incorporation in transfected NIH-3T3 fibroblasts; type: cell-based, mouse; conditions: for % Cells BrdU Positive: Table 2, expression vector 3 μg/10 ml; for % Cells BrdU Positive in 10% FCS: nonstarved cells; for % Cells BrdU Positive in 10% FCS / % Cells BrdU Positive in 0.1% FCS: additive None, labeled 22 hours; for % Cells BrdU Positive in 0.1% FCS: starved cells
Experimental: BrdU is added to NIH-3T3 cells after the experimental treatment and the cells were incubated for twenty-two hours in DMEM plus 10% fetal calf serum (FCS). The cells were then stained for DMP1 expression and/or BrdU incorporation. The nucleic acids encoding the wildtype DMP1 and the deletion and point mutants had been constructed so as to express the corresponding proteins with Flag-tags. To stain for DMP1 expression, mouse monoclonal anti-Flag antibodies (12 μg/ml) [Kodak] were incubated with the cells in TBS-Ca^+ without FCS for one hour at room temperature. After washing the cells, horse anti-mouse biotinylated antibodies at a 1:500 dilution were added to the cells in TBS plus 5% FCS and incubated for 30 minutes at room temperature. After washing the cells, strefptavidin linked to Texas red [Amersham] was then added at a 1:500 dilution for 30 minutes at room temperature. To stain for BrdU incorporation, 1.5N HCl was added to the cells for ten minutes at room temperature to denature the DNA. After washing the cells, sheep anti-BrdU antibodies [Fitzgerald] at a 1:12 dilution were then added for one hour at room temperature. After washing the cells, rabbit FITC-conjugated anti-sheep antibodies [Vector] at 1:100 dilution was then incubated for 30 minutes at room temperature.
NIH-3T3 cells were placed on cover slides and transfected with the expression vectors (pFLEX-DMP1 or the corresponding vector containing the deletion or point mutants of mouse DMP1 plus or minus cyclin D or E) for fourteen hours. The cells were then washed twice and DMEM plus 10% FCS was added and the cells incubated for eight hours. Half of the cells were starved by washing twice with 0.1% FCS, and then incubated for twenty-four hours in 0.1% FCS in DMEM. The remaining cells were not starved but were incubated for twenty-four hours in DMEM plus 10% FCS without washing. BrdU was added to both groups of cells and the cells were incubated for twenty-two hours in DMEM plus 10% FCS.
The cells were then restimulated to enter the cell cycle synchronously with DMEM plus 10% FCS. At the same time, 5′-Bromo-2′ Deoxyuridine (BrdU) was added to the medium. The cells were fixed 22 hours later in methanol acetone (1:1) and stained for BrdU incorporation and DMP1 expression as described in the Materials and Methods.

[3] = test system: DMP1-responsive promoter (pGL2BS2); test: Transactivation of luciferase reporter plasmid under control of a DMP1-responsive promoter in NIH-3T3 fibroblasts; type: cell-based, mouse; conditions: expression vector 3 μg/10 ml, pGL2BS2 8 μg/10 ml; vector without insert set to 1.0
Text: Coexpression of a D-type cyclin with DMP1 overrides the ability of DMP1 to transactivate a luciferase gene under the control of an artificial DMP1-responsive promoter (Table 4), as well as the ability of DMP1 to inhibit cell growth.

[4] = molecular target: T1, recombinant DMP1 (Mus musculus, UniProt Q8CE22); test: EMSA competition with Sf9 lysates producing recombinant DMP1; type: binding; conditions: excess unlabeled oligonucleotide
T1 construct: made in house; host or cells: Sf9 insect cells, pAcYM1 baculovirus vector; used as crude lysate (~4 ng DMP1 per reaction)
T1 sequence (Q8CE22 1-761): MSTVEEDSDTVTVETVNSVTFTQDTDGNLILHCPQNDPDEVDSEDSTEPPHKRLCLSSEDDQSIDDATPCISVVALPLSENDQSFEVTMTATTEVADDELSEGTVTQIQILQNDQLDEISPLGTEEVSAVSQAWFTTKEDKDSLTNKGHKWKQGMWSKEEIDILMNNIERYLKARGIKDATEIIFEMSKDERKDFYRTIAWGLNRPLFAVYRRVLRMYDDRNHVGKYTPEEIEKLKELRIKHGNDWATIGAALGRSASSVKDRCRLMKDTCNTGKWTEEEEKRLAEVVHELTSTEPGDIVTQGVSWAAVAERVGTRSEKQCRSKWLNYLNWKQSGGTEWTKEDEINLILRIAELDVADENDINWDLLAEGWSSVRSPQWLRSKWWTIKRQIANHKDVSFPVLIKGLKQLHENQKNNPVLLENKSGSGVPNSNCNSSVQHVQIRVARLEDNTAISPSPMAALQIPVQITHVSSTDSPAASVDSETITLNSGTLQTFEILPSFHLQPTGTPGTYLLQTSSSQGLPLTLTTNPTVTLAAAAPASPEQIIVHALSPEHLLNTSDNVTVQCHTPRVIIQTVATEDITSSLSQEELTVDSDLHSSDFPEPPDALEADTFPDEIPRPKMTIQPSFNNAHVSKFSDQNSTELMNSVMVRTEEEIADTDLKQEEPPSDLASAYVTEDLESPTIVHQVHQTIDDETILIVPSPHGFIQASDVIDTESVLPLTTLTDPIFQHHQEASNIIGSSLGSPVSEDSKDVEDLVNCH
Experimental: as §1
(§2) Using electrophoretic mobility shift assays (EMSA) performed after mixing a titrated excess (3 ng) of ^32P-end labeled BS1 probe with Sf9 lysates producing DMP1 (˜4 ng recombinant protein per reaction), a BS1-containing protein complex is detected that was competed with an excess of unlabeled BS1 oligonucleotide but not with mutant oligonucleotides M1 and M2 (FIG. 6A). […] More subtle mutations within this region may be tolerated, because high concentrations of M4 competed for BS1 binding to both Ets2 and DMP1 in subsequent studies (FIG. 5B and see below). DMP1 also binds a BS2 probe, and the binding is competed by excess BS2 or BS1 (FIG. 6B). In agreement with the site selection frequencies (FIG. 5A), binding of ^32P-BS1 under equivalent conditions was competed more efficiently by excess unlabeled BS1 than by BS2 (FIG. 6B). […] In agreement, Ets2 binding to BS1 could be competed with excess unlabeled BS1 and M3, but not by BS2 (FIG. 6C). Therefore, although both DMP1 and Ets2 can each bind to BS1 sequences, their exclusive interactions with BS2 and M3, respectively, help to distinguish DMP1 and Ets binding activities (summarized in FIG. 5B).

[5] = molecular target: T2, GST-Ets2 fusion protein (Homo sapiens, UniProt P15036); test: EMSA competition with bacterial GST-Ets2 fusion protein; type: binding; conditions: excess unlabeled oligonucleotide
T2 construct: made in house; host or cells: bacteria
T2 sequence (P15036 363-443 limits assumed): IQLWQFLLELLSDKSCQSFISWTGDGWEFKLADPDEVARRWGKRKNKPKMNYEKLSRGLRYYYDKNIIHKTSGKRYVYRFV
Experimental: as §1, §2

[6] = molecular target: T3, cyclin D1 (Mus musculus, UniProt P25322); test: Flag immunoprecipitation from SF9 lysates and Western blot for cyclin D1; type: binding; conditions: cotransfected with cyclin D1 in SF9 cells
T3 construct: expressed in transfected cells; host or cells: SF9 insect cells
T3 sequence (P25322 whole entry): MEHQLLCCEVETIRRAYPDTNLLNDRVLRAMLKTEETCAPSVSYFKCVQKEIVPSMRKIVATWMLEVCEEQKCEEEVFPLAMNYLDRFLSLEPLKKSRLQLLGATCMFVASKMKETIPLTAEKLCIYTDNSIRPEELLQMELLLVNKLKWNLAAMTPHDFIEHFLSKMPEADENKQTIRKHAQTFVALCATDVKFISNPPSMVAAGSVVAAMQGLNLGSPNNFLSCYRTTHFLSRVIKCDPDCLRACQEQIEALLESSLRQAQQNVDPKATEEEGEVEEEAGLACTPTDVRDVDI
Text: The series of DMP1 deletion mutants and the K319E point mutant were then used to determine the cyclin D binding domain of DMP1. Expression vectors encoding murine wild-type DMP1, the corresponding deletion mutations, or K319E (i.e., wildtype DMP1 and M1-M11, defined in FIG. 10, Table 1) were cotransfected with an expression vector encoding cyclin D1 into SF9 cells. Wildtype DMP1 and M1-M11 were expressed containing Flag-tags. SF9 lysates were immunoprecipitated with an antibody raised against the Flag-tag. The immunoprecipitates were resolved individually by gel electrophoresis, and then Western blotted with an antibody raised against cyclin D1. […] Therefore, deletion of the N-terminal domain of DMP1 (i.e., amino acids 1-223) abrogates its ability to interact with D-type cyclins, and thus, the region of DMP1 from residues 1-223 contains a specific cyclin D interaction motif required for D-type cyclin-DMP1 association.

Substance | 32P-labeled Band [1] | % Cells BrdU Positive [2] | % Cells BrdU Positive in 10% FCS [2] | % Cells BrdU Positive in 0.1% FCS [2] | Luciferase Activity [3] | competition for 32P-BS1 probe binding to DMP1 [4] | competition for BS1 binding to Ets2 [5] | band corresponding to cyclin D1 in Flag immunoprecipitate [6] | competition for BS2 probe binding to DMP1 [4]
M8: DMP1 deletion mutant, amino acids 1-237; 381-761 of SEQ ID NO:1 | No | 54% | 54% | 54% | 1.1 |  |  |  | 
M7: DMP1 deletion mutant, amino acids 1-169; 238-761 of SEQ ID NO:1 | No | 36% |  |  | 0.9 |  |  |  | 
M2: DMP1 deletion mutant (StuI), amino acids 1-520 of SEQ ID NO:1 | Yes | 20% |  |  | 3.6 | not |  |  | 
M4: DMP1 deletion mutant (BstBI), amino acids 1-380 of SEQ ID NO:1 | No | 52% |  |  | 1.0 | competed | competed |  | 
M9: DMP1 5′ deletion mutant, amino acids 234-761 of SEQ ID NO:1 | No | 50% |  |  | 1.0 |  |  | cyclin D1 binding domain is missing | 
M6: DMP1 deletion mutant, amino acids 1-86; 170-761 of SEQ ID NO:1 | No | 48% | 44% | 47% | 1.0 |  |  |  | 
M5: DMP1 deletion mutant (XbaI and BstEII), amino acids 87-761 of SEQ ID NO:1 | Yes | 32% |  |  | 6.2 |  |  | particularly faint | 
M1: DMP1 deletion mutant (EcoNI), amino acids 1-661 of SEQ ID NO:1 | Yes | 12% |  |  | 6.7 | not |  |  | 
oligonucleotide BS1: probe/competitor BS1, SEQ ID NO:10, DMP1 binding site with GGA core (DNA AATTGACCCGGATGTAGGTACGC; chemistry not given here) |  |  |  |  |  | competed | competed |  | competed
M10: DMP1 deletion mutant (BstEII and NcoI), amino acids 87-458 of SEQ ID NO:1 | Yes | 56% |  |  | 1.1 |  |  |  | 
